Where a name gives a salt, the structure may show the parent alone. Read-outs that look alike come from different tables or passages of the source.

Common to all, as to assay type: biochemical
In one experiment the target is T1, opioid receptor mu (Homo sapiens, UniProt P35372).
T1 construct: expressed in transfected cells
As to the kind of experiment: GTPγ[35S] binding assay, antagonism of endorphin. As for the experimental part:
(§1) Membranes were prepared from cells as described (Bass et al, 1996). GTPγ[5S] binding assays were performed in a 96 well FlashPlate™ format in duplicate using […] GTPγ[^35S] and 5 μg membrane per well in assay buffer composed of 50 mM Tris HCl, pH 7.4, 5 mM MgCl2, 1 mM EDTA, 100 mM NaCl, 30 μM GDP, 0.1% bovine serum albumin and the following protease inhibitors: 100 μg/ml bacitracin, 100 μg/ml benzamidine, 5 μg/ml aprotinin, 5 μg/ml leupeptin. The assay mix was then incubated at 30° C. with increasing concentrations of antagonist (10^−10 M to 10^−5 M) for 10 minutes and challenged with the agonists BW-373U86 (1 nM), dynorphin-A (10 nM), […] (1 μM) for opioid receptors delta, kappa, and mu, respectively. The assays were performed at 30° C. for one hour. The FlashPlates were then centrifuged at 2000×g for 10 minutes. Stimulation of GTPγ[^35S] binding was then quantified using a Wallac Microbeta and Ki calculations were done using Prism™ by Graphpad.
On the technique in general: Binding of GTPγS marks nucleotide exchange on a G protein.

A further experiment has as its target T2, opioid receptor kappa (Homo sapiens, UniProt P41145).
T2 construct: expressed in transfected cells
As to the kind of experiment: GTPγ[35S] binding assay, antagonism of dynorphin-A. As for the experimental part:
as §1

The target in the next experiment is T3, opioid receptor delta (Homo sapiens, UniProt P41143).
T3 construct: expressed in transfected cells
As to the kind of experiment: GTPγ[35S] binding assay, antagonism of BW-373U86. The protocol:
as §1

Setting [1] is: read-out: Mu functional Ki (GTPγ[35S] binding).
[2] abbreviates: read-out: Kappa functional Ki (GTPγ[35S] binding).
The mark [3] stands for this setting: read-out: Delta functional Ki (GTPγ[35S] binding).
Setting [4] is: average Ki, antagonism of endorphin (1 μM) at mu opioid receptor membranes, read-out: Mu functional Ki (GTPγ[35S] binding).
The mark [5] stands for this setting: average Ki, antagonism of dynorphin-A (10 nM) at kappa opioid receptor membranes, read-out: Kappa functional Ki (GTPγ[35S] binding).
Setting [6] is: average Ki, antagonism of BW-373U86 (1 nM) at delta opioid receptor membranes, read-out: Delta functional Ki (GTPγ[35S] binding).
Where [7] appears, read: average Ki, antagonism of endorphin (1 μM) stimulated GTPγ[35S] binding, mu opioid receptor membranes, read-out: Mu functional (GTPγ[35S] binding Ki).
[8] abbreviates: average Ki, antagonism of dynorphin-A (10 nM) stimulated GTPγ[35S] binding, kappa opioid receptor membranes, read-out: Kappa functional (GTPγ[35S] binding Ki).
[9] abbreviates: average Ki, antagonism of BW-373U86 (1 nM) stimulated GTPγ[35S] binding, delta opioid receptor membranes, read-out: Delta functional (GTPγ[35S] binding Ki).
Setting [10] is: read-out: Mu functional (GTPγ[35S] binding Ki).
[11] abbreviates: read-out: Kappa functional (GTPγ[35S] binding Ki).
The mark [12] stands for this setting: read-out: Delta functional (GTPγ[35S] binding Ki).

T3 sequence (P41143 whole entry): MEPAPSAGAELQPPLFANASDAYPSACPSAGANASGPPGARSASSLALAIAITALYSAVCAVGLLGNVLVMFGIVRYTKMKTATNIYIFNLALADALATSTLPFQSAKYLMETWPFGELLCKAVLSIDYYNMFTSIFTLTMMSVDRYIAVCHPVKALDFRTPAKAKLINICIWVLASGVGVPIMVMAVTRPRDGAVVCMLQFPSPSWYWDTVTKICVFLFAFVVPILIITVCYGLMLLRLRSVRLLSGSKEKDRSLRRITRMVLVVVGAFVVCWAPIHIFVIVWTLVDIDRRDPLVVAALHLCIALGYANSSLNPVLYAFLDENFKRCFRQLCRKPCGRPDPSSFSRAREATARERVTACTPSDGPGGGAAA
T1 sequence (P35372 whole entry): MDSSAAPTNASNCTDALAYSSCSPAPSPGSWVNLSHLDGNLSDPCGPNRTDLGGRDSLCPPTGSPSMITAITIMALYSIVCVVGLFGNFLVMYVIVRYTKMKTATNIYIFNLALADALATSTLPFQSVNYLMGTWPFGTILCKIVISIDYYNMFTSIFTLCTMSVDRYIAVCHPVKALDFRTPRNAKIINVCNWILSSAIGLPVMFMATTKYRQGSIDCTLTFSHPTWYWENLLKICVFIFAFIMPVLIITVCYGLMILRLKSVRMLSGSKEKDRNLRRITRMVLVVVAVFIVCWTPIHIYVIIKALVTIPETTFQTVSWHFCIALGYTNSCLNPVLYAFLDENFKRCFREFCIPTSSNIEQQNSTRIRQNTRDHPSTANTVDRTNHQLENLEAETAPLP
T2 sequence (P41145 whole entry): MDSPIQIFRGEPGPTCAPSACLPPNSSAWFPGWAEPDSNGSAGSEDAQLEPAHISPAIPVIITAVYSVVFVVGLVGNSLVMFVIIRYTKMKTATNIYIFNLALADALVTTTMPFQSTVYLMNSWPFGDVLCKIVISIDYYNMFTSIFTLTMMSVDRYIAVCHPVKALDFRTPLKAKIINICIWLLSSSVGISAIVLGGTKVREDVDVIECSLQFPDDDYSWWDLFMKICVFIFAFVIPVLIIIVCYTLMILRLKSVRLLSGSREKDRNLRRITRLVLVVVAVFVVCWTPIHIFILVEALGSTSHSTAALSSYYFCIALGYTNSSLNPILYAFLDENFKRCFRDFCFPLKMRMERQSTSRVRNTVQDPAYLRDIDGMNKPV

Take `Cc1cc(CNC2Cc3ccccc3C2)ccc1-c1ccc(C(N)=O)cc1C` [4B-73]: the Ki on opioid receptor mu (setting [1]) was found to be 0.0298 nM; at opioid receptor kappa (setting [2]), 0.318 nM; on opioid receptor delta (setting [3]), 0.135 nM.
For `CC(C)CCNCc1ccc(-c2cccc(-c3ncn[nH]3)c2)cc1` [7A-01] the same measures were 8.31 nM, 8.43 nM and 26.1 nM.
For `CC(C)CCNCc1ccc(-c2ccc(-c3ncn[nH]3)cc2)cc1` [7B-01] the same measures were 10.3 nM, 35 nM and 311 nM.
The matching figures for `Cc1cc(C(N)=O)ccc1-c1ccc(CNCc2cccnc2)cc1` [4B-43]: 70.2 nM, 8.95 nM and 10.6 nM.
Regarding `CC(C)CCNCc1ccc(-c2cc(-c3ncn[nH]3)ccc2F)cc1` [7A-02], the Ki on opioid receptor mu (setting [4]) came to 1.59 nM; on opioid receptor kappa (setting [5]) it was 1.77 nM; on opioid receptor delta (setting [6]) it was 5.26 nM.
In the case of `Cc1cc(C(N)=O)cc(Cl)c1-c1ccc(CNCCC(C)C)cc1` [4B-49], the Ki was 2.72 nM on opioid receptor mu (setting [1]), 2.31 nM on opioid receptor kappa (setting [2]) and 6.66 nM at opioid receptor delta (setting [3]).
The matching figures for `NC(=O)c1ccc(-c2cc(F)c(CNCCC3CCOCC3)c(F)c2)c(Cl)c1` [4B-57]: 12.7 nM, 4.58 nM and 168 nM.
The matching figures for `Cc1cc(C(N)=O)ccc1-c1cc(F)c(CNC[C@@H]2CCCO2)c(F)c1` [4B-55]: 30.7 nM, 8.55 nM and 19 nM.
Regarding `CC(C)CCNCc1ccc(-c2cccc(C(N)=O)c2)cn1` [1C-01], the Ki stood at 154 nM on opioid receptor mu (setting [7]), 114 nM at opioid receptor kappa (setting [8]) and 22 nM on opioid receptor delta (setting [9]).
Consider `Cc1cc(C(N)=O)ccc1-c1ccc(CNCCOc2ccccc2)cc1` [4B-16], for which the values for the Ki on opioid receptor mu (setting [10]), at opioid receptor kappa (setting [11]) and at opioid receptor delta (setting [12]) were 2.82 nM, 7.65 nM and 0.751 nM, respectively.
Turning to `Cc1cc(CNCCC(C)C)cc(C)c1-c1cccc(C(N)=O)c1` [1A-02], the Ki at opioid receptor mu (setting [7]) was 1.25 nM; on opioid receptor kappa (setting [8]), 6.72 nM; on opioid receptor delta (setting [9]) it was 2.59 nM.
Consider `Cc1cc(C(N)=O)ccc1-c1c(C)cc(CNCC2CCCO2)cc1Cl` (stereo not drawn) [4B-91], for which the Ki was found to be 2.22 nM on opioid receptor mu (setting [4]), 9.01 nM on opioid receptor kappa (setting [5]) and 24.5 nM on opioid receptor delta (setting [6]).
Take `NC(=O)c1cccc(-c2ccc(CNCCC3CCCCO3)cc2Cl)c1` (stereo not drawn) [4A-13]: the values for the Ki on opioid receptor mu (setting [10]), on opioid receptor kappa (setting [11]) and on opioid receptor delta (setting [12]) were 1.16 nM, 11 nM and 3.27 nM, respectively.
Turning to `Cc1cc(CNCCC(C)C)ccc1-c1cccc(NS(C)(=O)=O)c1` [8A-02], the Ki was determined as 1.15 nM on opioid receptor mu (average Ki, antagonism of endorphin (1 μM) at mu opioid receptor, read-out: Mu functional Ki (GTPγ[35S] binding)); 15.3 nM on opioid receptor kappa (average Ki, antagonism of dynorphin-A (10 nM) at kappa opioid receptor, read-out: Kappa functional Ki (GTPγ[35S] binding)); 10.4 nM on opioid receptor delta (average Ki, antagonism of BW-373U86 (1 nM) at delta opioid receptor, read-out: Delta functional Ki (GTPγ[35S] binding)).
As to `Cc1cc(C(N)=O)ccc1-c1ccc(CNCc2ccccc2F)cc1` [4B-26], the Ki at opioid receptor mu (setting [10]) worked out at 4.55 nM; at opioid receptor kappa (setting [11]), 3.32 nM; at opioid receptor delta (setting [12]), 5.72 nM.
With `CC(C)CCNCc1c(F)cc(-c2ccc(C(N)=O)cc2)cc1F` [1B-05], the Ki on opioid receptor mu (setting [7]) stood at 107 nM; at opioid receptor kappa (setting [8]), 162 nM; at opioid receptor delta (setting [9]) it was 3000 nM.
For the compound `Cc1cc(CNCCC(C)C)ccc1-c1ccc(-c2ncn[nH]2)cc1` [7B-02], the Ki at opioid receptor mu (setting [1]) was 0.72 nM; at opioid receptor kappa (setting [2]), 4.4 nM; at opioid receptor delta (setting [3]), 3.71 nM.
The matching figures for `Cc1cc(-c2nnc[nH]2)ccc1-c1ccc(C[NH2+]CCC(C)C)cc1` [E7-01, [2′-methyl-4′-(4H-[1,2,4]-triazol-3-yl)-biphenyl-4-ylmethyl]-(3-methyl-butyl)-amine hydrochloride]: 3.9 nM, 13 nM and 11 nM.
Consider `Cc1cc(-c2ncn[nH]2)ccc1-c1ccc(CNCCC(C)C)cc1F` [7B-03], for which the Ki at opioid receptor mu (setting [1]) is 1.7 nM; at opioid receptor kappa (setting [2]), 9.25 nM; on opioid receptor delta (setting [3]) it was 28.2 nM.
The matching figures for `NC(=O)c1ccc(-c2ccc(CNCCC3CCOCC3)cc2Cl)c(Cl)c1` [4B-67]: 7.22 nM, 3.62 nM and 2.95 nM.
With `COc1cc(-c2cccc(C(N)=O)c2)ccc1CNCCC(C)C` [1A-05], the Ki was 14 nM at opioid receptor mu (setting [7]), 16.6 nM at opioid receptor kappa (setting [8]) and 10.7 nM on opioid receptor delta (setting [9]).
Take `Cc1cc(CNCCC2CCOCC2)ccc1-c1ccc(C(N)=O)cc1C` [4B-70]: the Ki on opioid receptor mu (setting [1]) was determined as 2 nM; on opioid receptor kappa (setting [2]) it was 2.48 nM; at opioid receptor delta (setting [3]), 1.04 nM.
Consider `COc1cc(-c2ccc(C(N)=O)cc2C)ccc1CNC1Cc2ccccc2C1` [4B-89], for which the Ki on opioid receptor mu (setting [1]) worked out at 0.0272 nM; at opioid receptor kappa (setting [2]) it was 0.366 nM; at opioid receptor delta (setting [3]) it was 0.0895 nM.
For `CC(C)CCNCc1ccc(-c2cc(-c3ncn[nH]3)ccc2F)c(F)c1` [7A-03] the same measures were 4.07 nM, 2.71 nM and 12.5 nM.
For `CC[C@@H](NCc1c(F)cc(-c2ccc(C(N)=O)cc2C)cc1F)c1ccccn1` [4B-52] the same measures were 138 nM, 7.01 nM and 15.4 nM.
Regarding `CC1(C)OCC(CNCc2ccc(-c3ccc(C(N)=O)cc3Cl)c(Cl)c2)O1` (stereo not drawn) [4B-79], the Ki was determined as 228 nM at opioid receptor mu (setting [4]), 128 nM on opioid receptor kappa (setting [5]) and 1.42 nM on opioid receptor delta (setting [6]).
Regarding `Cc1cc(C)n(CC(C)NCc2ccc(-c3cccc(C(N)=O)c3)c(Cl)c2)n1` (stereo not drawn) [6A-05], the Ki on opioid receptor mu (setting [1]) came to 5.25 nM; on opioid receptor kappa (setting [2]), 27.2 nM; at opioid receptor delta (setting [3]), 17.6 nM.
As for `Cc1cc(C(N)=O)ccc1-c1ccc(CNCCC(C)C)cn1` [1D-02], the values for the Ki on opioid receptor mu (setting [7]), at opioid receptor kappa (setting [8]) and at opioid receptor delta (setting [9]) were 43.1 nM, 14.7 nM and 4.33 nM, respectively.
Consider `CC(C)CCNCc1cc(F)c(-c2ccc(C(N)=O)cc2Cl)cc1F` [4B-80], for which the Ki on opioid receptor mu (setting [1]) was 13.7 nM; at opioid receptor kappa (setting [2]), 9.5 nM; on opioid receptor delta (setting [3]) it was 11.8 nM.
For the compound `CC(C)CCNCc1cc(Cl)c(-c2cccc(C(N)=O)c2)c(Cl)c1` [1A-03], the Ki at opioid receptor mu (setting [7]) is 1.2 nM; at opioid receptor kappa (setting [8]), 3.76 nM; on opioid receptor delta (setting [9]), 4.87 nM.
In the case of `Cc1cc(CNCCC(C)C)ccc1-c1ccc(C(N)=O)cc1` [1B-01], the Ki on opioid receptor mu (setting [7]) was 17.8 nM; on opioid receptor kappa (setting [8]), 24.8 nM; on opioid receptor delta (setting [9]), 13.6 nM.
As for `NC(=O)c1ccc(-c2ccc(CNC3Cc4ccccc4C3)nc2)c(Cl)c1` [1D-05], the Ki was determined as 1.85 nM at opioid receptor mu (setting [10]), 4.96 nM on opioid receptor kappa (setting [11]) and 4.85 nM at opioid receptor delta (setting [12]).
In the case of `CC(C)CCNCc1ccc(-c2ncc(C(N)=O)cc2Cl)cc1` [4C-01], the Ki on opioid receptor mu (setting [4]) amounted to 28 nM; at opioid receptor kappa (setting [5]) it was 15.6 nM; on opioid receptor delta (setting [6]), 33.8 nM.
With `CCc1cc(C(N)=O)ccc1-c1ccc(CNCCC(C)C)cc1` [4B-48], the Ki on opioid receptor mu (setting [1]) is 12 nM; at opioid receptor kappa (setting [2]), 13.9 nM; on opioid receptor delta (setting [3]) it was 16.1 nM.
Turning to `Cc1cc(C(N)=O)cnc1-c1ccc(CNCCC(C)C)cc1` [4C-04], the Ki stood at 10.5 nM at opioid receptor mu (setting [4]), 7.23 nM at opioid receptor kappa (setting [5]) and 21.9 nM at opioid receptor delta (setting [6]).
Turning to `CC(C)CCNCc1ccc(-c2ccc(C(N)=O)cc2)cc1` [4B-01], the figures for the Ki on opioid receptor mu (setting [10]), on opioid receptor kappa (setting [11]) and at opioid receptor delta (setting [12]) were 175 nM, 88.6 nM and 14 nM, respectively.
As to `CC(C)CCNCc1ccc(-c2ccc(-c3ncn[nH]3)cc2C(F)(F)F)cc1` [7B-05], the Ki at opioid receptor mu (setting [1]) came to 14.2 nM; at opioid receptor kappa (setting [2]) it was 47.4 nM; on opioid receptor delta (setting [3]) it was 29.7 nM.
Consider `Cc1cc(C(N)=O)ccc1-c1ccc(CNCC2Cc3ccccc3O2)cc1` (stereo not drawn) [4B-31], for which the Ki on opioid receptor mu (setting [10]) turned out to be 4.05 nM; at opioid receptor kappa (setting [11]), 3.71 nM; on opioid receptor delta (setting [12]), 1.09 nM.

Source of the values: patent US7615651B2, “Diaryl, dipyridinyl and aryl-pyridinyl derivatives and uses thereof” (Pfizer Inc., priority 2006, dated 2009).
